In the NIST ThermoML archive (doi:10.1016/j.jct.2016.06.023):
Numbers after ± are expanded uncertainties.

Columns and labels:
[1] = 101.3 kPa, Liquid, Vibrating tube method
[2] = mn = molality of the nth substance listed, in mol/kg; conditions: 101.3 kPa, Liquid, Vibrating tube method, m2 = 0

mass density ([1]; 278.15 K) | mass density ([1]; 283.15 K) | mass density ([1]; 308.15 K) | mass density ([1]; 328.15 K) | mass density ([1]; 333.15 K) | mass density ([1]; 338.15 K) | mass density ([1]; 343.15 K) | mass density ([2]; 278.15 K) | mass density ([2]; 283.15 K) | mass density ([2]; 308.15 K) | mass density ([2]; 328.15 K) | mass density ([2]; 333.15 K) | mass density ([2]; 338.15 K) | mass density ([2]; 343.15 K) | Structure (SMILES)
999.99 ± 0.4 kg/m3 | 999.73 ± 0.41 kg/m3 | 994.06 ± 0.41 kg/m3 | 985.73 ± 0.4 kg/m3 | 983.24 ± 0.4 kg/m3 | 980.59 ± 0.4 kg/m3 | 977.81 ± 0.4 kg/m3 | – | – | – | – | – | – | – | O [water]
– | – | – | – | – | – | – | 999.99 ± 0.4 kg/m3 | 999.73 ± 0.41 kg/m3 | 994.06 ± 0.41 kg/m3 | 985.73 ± 0.4 kg/m3 | 983.24 ± 0.4 kg/m3 | 980.59 ± 0.4 kg/m3 | 977.81 ± 0.4 kg/m3 | O [water] + O=C(O)CC(=O)O
